Experimental data reported in PMC8748775, “The sphingosine 1-phosphate receptor 2/4 antagonist JTE-013 elicits off-target effects on sphingolipid metabolism” (Scientific Reports, 2022).

What was measured:
S1P lyase = target: T1, S1P lyase (Homo sapiens, UniProt O95470); test: fluorogenic S1P lyase assay in overexpressing lysate, […] DOP; assay type: cell-based
T1 construct: gene SGPL1; FLAG-tagged human S1P lyase overexpressed in HEK293T cells (whole cell lysate)
T1 sequence (O95470 1-568): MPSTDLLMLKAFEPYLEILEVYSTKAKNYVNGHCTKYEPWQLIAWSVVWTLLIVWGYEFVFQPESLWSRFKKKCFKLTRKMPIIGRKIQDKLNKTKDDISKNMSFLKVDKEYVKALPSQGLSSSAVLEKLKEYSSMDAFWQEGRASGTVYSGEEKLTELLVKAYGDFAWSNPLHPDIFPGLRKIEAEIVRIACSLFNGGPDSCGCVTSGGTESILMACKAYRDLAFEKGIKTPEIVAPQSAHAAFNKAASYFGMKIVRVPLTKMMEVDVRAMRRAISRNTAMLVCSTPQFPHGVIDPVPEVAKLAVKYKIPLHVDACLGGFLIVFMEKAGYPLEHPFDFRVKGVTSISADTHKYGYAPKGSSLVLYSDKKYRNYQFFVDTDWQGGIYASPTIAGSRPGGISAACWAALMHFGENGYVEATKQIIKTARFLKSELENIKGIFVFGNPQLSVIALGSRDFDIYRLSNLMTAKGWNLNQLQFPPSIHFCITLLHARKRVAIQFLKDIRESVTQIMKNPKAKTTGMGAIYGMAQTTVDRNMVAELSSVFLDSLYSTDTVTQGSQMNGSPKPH

[1] = target: T2, sphingosine kinase 2 (SK2) (Homo sapiens, UniProt Q9NRA0); test: in vitro radiometric [γ-32P]ATP sphingosine kinase assay with purified enzyme; assay type: biochemical
T2 construct: gene SPHK2; purified recombinant human SK2
T2 sequence (Q9NRA0 1-654): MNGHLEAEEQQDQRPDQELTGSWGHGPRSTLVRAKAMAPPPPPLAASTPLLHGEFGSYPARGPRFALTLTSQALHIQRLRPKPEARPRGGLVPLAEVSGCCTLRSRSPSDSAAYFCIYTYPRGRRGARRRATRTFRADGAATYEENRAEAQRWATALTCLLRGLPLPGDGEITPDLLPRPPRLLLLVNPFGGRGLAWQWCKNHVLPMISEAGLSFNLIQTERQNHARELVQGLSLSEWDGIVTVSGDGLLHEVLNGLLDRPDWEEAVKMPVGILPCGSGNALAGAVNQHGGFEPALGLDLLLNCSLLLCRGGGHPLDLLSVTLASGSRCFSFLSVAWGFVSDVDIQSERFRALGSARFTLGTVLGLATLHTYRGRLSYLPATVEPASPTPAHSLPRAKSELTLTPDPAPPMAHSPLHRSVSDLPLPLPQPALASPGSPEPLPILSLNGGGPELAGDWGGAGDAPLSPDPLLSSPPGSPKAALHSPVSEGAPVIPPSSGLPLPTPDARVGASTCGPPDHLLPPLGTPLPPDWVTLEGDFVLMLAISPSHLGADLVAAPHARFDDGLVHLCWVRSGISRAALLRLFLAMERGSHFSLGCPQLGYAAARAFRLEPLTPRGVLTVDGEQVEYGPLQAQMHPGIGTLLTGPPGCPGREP

[2] = target: T3, sphingosine kinase 1 (SK1) (Homo sapiens, UniProt Q9NYA1); test: as above; assay type: biochemical
T3 construct: gene SPHK1; purified recombinant human SK1
T3 sequence (Q9NYA1 whole entry): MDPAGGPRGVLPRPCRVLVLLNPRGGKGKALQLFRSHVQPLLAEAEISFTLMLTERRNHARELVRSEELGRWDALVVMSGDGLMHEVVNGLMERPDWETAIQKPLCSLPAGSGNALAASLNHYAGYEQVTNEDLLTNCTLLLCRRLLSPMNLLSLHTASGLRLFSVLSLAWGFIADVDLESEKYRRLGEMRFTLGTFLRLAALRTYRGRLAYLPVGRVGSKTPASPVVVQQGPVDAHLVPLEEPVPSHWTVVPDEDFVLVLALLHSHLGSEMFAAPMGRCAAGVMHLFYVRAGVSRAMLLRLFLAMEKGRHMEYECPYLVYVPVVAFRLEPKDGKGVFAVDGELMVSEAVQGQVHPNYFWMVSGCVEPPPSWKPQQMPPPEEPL

[3] = target: T4, dihydroceramide desaturase 1 (Des1) (Homo sapiens, UniProt O15121); test: HPLC NBD-C6-dhCer conversion; Ki from Des1-overexpressing HEK293T lysates, competitive inhibition confirmed with purified Des1-FLAG plus CYB5; assay type: biochemical
T4 construct: gene DEGS1; Des1-FLAG (C-terminal FLAG), expressed in HEK293T cells; with cytochrome B5 (CYB5)
T4 sequence (P00167 2-134 partner, one chain of several): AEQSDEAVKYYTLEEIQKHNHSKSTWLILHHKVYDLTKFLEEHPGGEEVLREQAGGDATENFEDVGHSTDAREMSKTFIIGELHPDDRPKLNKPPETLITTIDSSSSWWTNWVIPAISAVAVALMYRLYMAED

[4] = substrate: CCCCCCCCCCCCCCC[C@@H](O)[C@H](CO)NC(=O)CCCCCNc1ccc([N+](=O)[O-])c2nonc12; test: HPLC conversion to NBD-C6-Cer; KM from Des1-overexpressing lysates, turnover also with purified Des1-FLAG; assay type: biochemical, Homo sapiens; conditions: NADPH; iron ((NH4)2Fe(SO4)[…] in purified assay)

Cc1ncc(CO)c(C)c1O [DOP, 4-deoxypyridoxine]
fluorogenic S1P lyase assay in overexpressing lysate, 1.25 mM DOP (S1P lyase): known S1P lyase inhibitors 4-deoxypyridoxine and FTY720 both showed inhibition of S1P lyase activity

Cc1nn(C)c2nc(NNC(=O)Nc3c(Cl)cncc3Cl)cc(C(C)C)c12 [JTE-013]
IC50 [1]: 4.3 ± 0.5 µM | IC50 [2]: 25.1 ± 2.7 µM | Ki [3]: 9.2 ± 0.8 µM

B1: dihydroceramide desaturase 1 (Des1) (Homo sapiens) (protein)
chain: GSRVSREDFEWVYTDQPHADRRREILAKYPEIKSLMKPDPNLIWIIIMMVLTQLGAFYIVKDLDWKWVIFGAYAFGSCINHSMTLAIHEIAHNAAFGNCKAMWNRWFGMFANLPIGIPYSISFKRYHMDHHRYLGADGVDVDIPTDFEGWFFCTAFRKFIWVILQPLFYAFRPLFINPKPITYLEVINTVAQVTFDILIYYFLGIKSLVYMLAASLLGLGLHPISGHFIAEHYMFLKGHETYSYYGPLNLLTFNVGYHNEHHDFPNIPGKSLPLVRKIAAEYYDNLPHYNSWIKVLYDFVMDDTISPYSRMKRHQKGEMVLE
notes: Des1-FLAG (C-terminal FLAG), expressed in HEK293T cells; with cytochrome B5 (CYB5)
Km [4]: 0.3 µM
